This assay concerns the target T1, Phosphodiesterase (Trypanosoma brucei, UniProt Q8WQX9).
T1 sequence (Q8WQX9 whole entry): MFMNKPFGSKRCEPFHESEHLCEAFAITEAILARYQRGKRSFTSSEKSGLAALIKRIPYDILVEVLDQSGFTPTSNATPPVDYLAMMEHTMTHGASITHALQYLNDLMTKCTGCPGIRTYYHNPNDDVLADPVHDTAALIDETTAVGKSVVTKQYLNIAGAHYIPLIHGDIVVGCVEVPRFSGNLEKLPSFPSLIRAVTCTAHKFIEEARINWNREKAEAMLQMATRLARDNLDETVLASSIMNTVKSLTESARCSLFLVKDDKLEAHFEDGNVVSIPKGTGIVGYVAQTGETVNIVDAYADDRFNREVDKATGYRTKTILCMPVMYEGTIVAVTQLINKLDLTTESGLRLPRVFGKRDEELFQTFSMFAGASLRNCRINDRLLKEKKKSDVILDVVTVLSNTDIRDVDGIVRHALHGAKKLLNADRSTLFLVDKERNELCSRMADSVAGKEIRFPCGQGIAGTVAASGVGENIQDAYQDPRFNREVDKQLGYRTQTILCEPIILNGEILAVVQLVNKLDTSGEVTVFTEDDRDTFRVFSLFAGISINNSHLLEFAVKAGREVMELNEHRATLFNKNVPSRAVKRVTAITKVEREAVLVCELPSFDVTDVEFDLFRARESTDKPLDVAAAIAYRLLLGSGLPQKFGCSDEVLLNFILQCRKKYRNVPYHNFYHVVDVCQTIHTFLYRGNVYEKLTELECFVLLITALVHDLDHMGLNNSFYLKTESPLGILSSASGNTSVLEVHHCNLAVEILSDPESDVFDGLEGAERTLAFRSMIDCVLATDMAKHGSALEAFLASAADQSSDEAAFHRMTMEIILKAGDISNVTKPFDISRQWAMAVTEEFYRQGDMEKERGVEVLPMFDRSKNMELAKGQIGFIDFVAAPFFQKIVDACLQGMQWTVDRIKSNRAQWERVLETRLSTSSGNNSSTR
Nature of the assay: TbrPDEB1 Enzyme Assay. The conditions noted are these: pH 7.4. On the procedure:
In short, recombinant TbrPDEB1 and TbrPDEB2 were assayed in 10 mM Tris pH 7.4, bovine serum albumin (0.2 mg/mL), 10 mM MgCl2, 25µM cAMP (Enzo Lifesciences) and an excess of 5 endonucleotidase (>1000U) at 37 °C. Excess amount of 5 endonucleotidase was determined by titration (Enzo Lifesciences). Reactions were terminated by the addition of BioMol green (Enzo Lifesciences) which was also used to detect changes in the level of phosphate. This was measured by absorbance at 620 nm using a Tecan Sunrise plate reader. […] Inhibitors were preincubated with the assay mixture for 5 min prior to the addition of substrate. Inhibition was determined by the change in the initial velocity relative to a vehicle only control for both compound screening and for the determination of IC50 values. Initial velocity was determined by linear regression and IC50 values were calculated

Structures are written as SMILES. Structures can show the parent of a compound that is named as a salt.

Consider `COC(=O)c1cccc(Nc2cc(C)c3ncc(C(N)=O)c(Nc4cccc(OC)c4)c3c2)c1` [Methyl 3-(3-carbamoyl-4-(3-methoxyphenylamino)-8-methylquinolin-6-ylamino)benzoate (13)], for which inhibition was half-maximal at 16 µM (IC50). In other words, the double-digit micromolar range. For `Cc1cccc(Nc2c(C(N)=O)cnc3c(C)cc(-c4ccc5cnn(C)c5c4)cc23)c1` [8-Methyl-6-(1-methyl-1H-indazol-6-yl)-4-(m-tolylamino)quinoline-3-carboxamide (24e)] the value was 3.5 µM. Regarding `COc1cccc(Nc2c(C(N)=O)cnc3c(C)cc(-c4cccc(-c5nnc(C)s5)c4)cc23)c1` [4-((3-Methoxyphenyl)amino)-8-methyl-6-(3-(5-methyl-1,3,4-thiadiazol-2-yl)phenyl) quinoline-3-carboxamide, formic acid salt (17o)], the concentration for half-maximal inhibition (IC50) is 6 µM. Against the preceding compound, the IC50 is about 1.7-fold higher.

Turning to `COc1cccc(Nc2c(C(N)=O)cnc3ccc(-c4ccc5cnn(C)c5c4)cc23)c1` [4-((3-Methoxyphenyl)amino)-6-(1-methyl-1H-indazol-6-yl)quinoline-3-carboxamide (19b)], the 50% inhibitory concentration (IC50) stood at 12 µM. The value for `CCOc1cccc(Nc2c(C(N)=O)cnc3c(C)cc(-c4ccc5cnn(C)c5c4)cc23)c1` [4-((3-Ethoxyphenyl)amino)-8-methyl-6-(1-methyl-1H-indazol-6-yl)quinoline-3-carboxamide (24c)] was 4.2 µM.

Turning to `CCc1cc(-c2ccc3cnn(C)c3c2)cc2c(Nc3cccc(OC)c3)c(C(N)=O)cnc12` [8-Ethyl-4-((3-methoxyphenyl)amino)-6-(1-methyl-1H-indazol-6-yl)quinoline-3-carboxamide (19c)], the midpoint of inhibition, the IC50, lay at 3.7 µM. The compound `COc1cccc(Nc2c(C(N)=O)cnc3c(C)cc(-c4cccc(-c5ncco5)c4)cc23)c1` [4-((3-Methoxyphenyl)amino)-8-methyl-6-(3-(oxazol-2-yl)phenyl)quinoline-3-carboxamide (17p)] yielded an IC50 of 5.9 µM.

`COc1cccc(Nc2c(C(N)=O)cnc3c(C)cc(S(=O)(=O)c4cccc(C(=O)N(C)C)c4)cc23)c1` [GSK-256066] gave an IC50 of 24 µM. In turn, `COc1cccc(Nc2c(C(N)=O)cnc3c(C)cc(S(=O)(=O)c4cccc(C(=O)O)c4)cc23)c1` [3-(3-carbamoyl-4-(3-methoxyphenylamino)-8-methylquinolin-6-ylsulfonyl)benzoic acid (11)] returned an IC50 of 2.9 µM. The compound `COc1cccc(Nc2c(C(N)=O)cnc3c(C)cc(-c4cccc(N5CCOCC5)c4)cc23)c1` [4-((3-Methoxyphenyl)amino)-8-methyl-6-(3-morpholinophenyl)quinoline-3-carboxamide (17s)] displayed a half-maximal inhibitory concentration (IC50) of 12 µM. Compared with the last compound, the IC50 is about 4.1-fold higher. For `COc1cccc(Nc2c(C(N)=O)cnc3c(C)cc(-c4cn[nH]c4)cc23)c1` [4-((3-Methoxyphenyl)amino)-8-methyl-6-(1H-pyrazol-4-yl)quinoline-3-carboxamide  (17j)], the IC50 turned out to be 9 µM. This IC50 and that of the compound before are within 1.5-fold of each other. For `COc1cccc(Nc2c(C(N)=O)cnc3c(C)cc(-c4ccc5[nH]ccc5c4)cc23)c1` [6-(1H-Indol-5-yl)-4-((3-methoxyphenyl)amino)-8-methylquinoline-3-carboxamide (17t)] the value was 5.9 µM; for `COc1cccc(Nc2c(C(N)=O)cnc3c(C)cc(-c4cccc(N)c4)cc23)c1` [6-(3-Aminophenyl)-4-((3-methoxyphenyl)amino)-8-methylquinoline-3-carboxamide (17f)], 23 µM; for `CNC(=O)c1cccc(S(=O)(=O)c2cc(C)c3ncc(C(N)=O)c(Nc4cccc(OC)c4)c3c2)c1` [4-(3-methoxyphenylamino)-8-methyl-6-(3-(methylcarbamoyl)phenylsulfonyl)quinoline-3-carboxamide (12b)], 31 µM. `COC(=O)c1cccc(-c2cc(C)c3ncc(C(N)=O)c(NCc4ccccc4)c3c2)c1` [Methyl 3-(4-(benzylamino)-3-carbamoyl-8-methylquinolin-6-yl)benzoate (22c)] gave an IC50 of 28 µM.

On to `COC(=O)c1cccc(S(=O)(=O)c2cc(C)c3ncc(C(N)=O)c(Nc4cccc(OC)c4)c3c2)c1` [Methyl 3-(3-carbamoyl-4-(3-methoxyphenylamino)-8-methylquinolin-6-ylsulfonyl)benzoate (10a)], for which the IC50 turned out to be 3.5 µM. As for `COC(=O)c1cccc(-c2cc(C)c3ncc(C(N)=O)c(Nc4cccnc4)c3c2)c1` [Methyl 3-(3-carbamoyl-8-methyl-4-(pyridin-3-ylamino)quinolin-6-yl)benzoate (22f)], half-maximal inhibition (IC50) was put at 26 µM. `Cc1cc(-c2cccc(-c3ncco3)c2)cc2c(NC3CCCC3)c(C(N)=O)cnc12` [4-(Cyclopentylamino)-8-methyl-6-(3-(oxazol-2-yl)phenyl)quinoline-3-carboxamide (28)]: the concentration for half-maximal inhibition (IC50) was found to be 5.9 µM. This IC50 lies about 4.4-fold lower than the previous one. `COc1cccc(Nc2c(C(N)=O)cnc3c(C)cc(-c4cccc(-c5nnn[nH]5)c4)cc23)c1` [6-(3-(1H-Tetrazol-5-yl)phenyl)-4-((3-methoxyphenyl)amino)-8-methylquinoline-3-carboxamide (17m)] had a concentration for half-maximal inhibition (IC50) of 6.7 µM. `COc1ccc(Nc2c(C(N)=O)cnc3c(C)cc(-c4ccc5cnn(C)c5c4)cc23)cc1C` [4-(4-Methoxy-3-methylphenylamino)-8-methyl-6-(1-methyl-1H-indazol-6-yl)quinoline-3-carboxamide, formic acid salt (24f)] yielded a half-inhibitory concentration (IC50) of 3.7 µM.

What is called IC50 is the concentration that inhibits the measured activity by half. A lower IC50 goes with inhibition by little substance.

Source of the values: BindingDB's records for doi:10.1111/cbdd.12443 (Northeastern University, 2015).
